# Reference: patent US11299458B2, “Crystalline compounds” (OTSUKA AMERICA PHARMACEUTICAL, INC., priority 2015, dated 2022)
# “And” between values parts separate entries of the source, which are not always exact repeats. Identical values can stand only once.
# Key:
# Format in all cases: physicochemical
# [1] = Solution calorimetry (SolCal), heats of solution in methanol; settings: methanol, 25° C., hydrochloride
# Description: For each test, two heats of solution are obtained—one calculated using a calibration preceding the sample analysis and one calculated using a calibration following the sample analysis. Clear solutions are observed after each test.
# Solution calorimetry is performed using a Thermometric 2225 Precision Solution calorimeter, a semi-adiabatic calorimeter. Solution calorimeter System v.1.2 software is used. Samples are weighed into glass crushing ampoules and are sealed using silicone rubber plugs and hot wax. Experiments are carried out in 100 mL of methanol at 25° C. The measurement of the heats of solution of the samples is both preceded and followed by calibrations using an internal heater. The heats of solution are calculated using dynamic of calibration model.
# [2] = Dynamic vapor sorption/desorption isotherm (moisture balance); settings: 25° C.
# Source text: Based on the dynamic vapor sorption/desorption data collected (FIG. 3), Crystalline Form A obtained is a non-hygroscopic material.
# Data acquisition parameters for dynamic vapor sorption/desorption isotherm: […]
# [3] = Polymorph screen: crystallization, slurry, vapor stress and pH buffer experiments, XRPD result
# Description: Antisolvent Precipitation: Solutions are prepared in various solvents and filtered through a 0.2-μm nylon filter into a vial. Antisolvent is then added until precipitation is observed. The resulting solids are isolated by vacuum filtration and analyzed.
# Crash Cool (CC): Solutions are prepared in various solvents at an elevated temperature and filtered warm through a 0.2-μm nylon filter into a pre-cooled vial. The vial is placed in a (dry ice+isopropanol) cooling bath. Samples are placed into a freezer if no solids are observed to immediately precipitate. The resulting solids are isolated by vacuum filtration and analyzed.
# Fast Evaporation (FE): Solutions are prepared in various solvents and sonicated between aliquot additions to assist in dissolution. Once a mixture reaches complete dissolution, as judged by visual observation, the solution is filtered through a 0.2-μm nylon filter. The filtered solution is allowed to evaporate at ambient conditions in an uncapped vial. Solutions are evaporated to dryness unless designated as partial evaporations. The solids that formed are isolated and analyzed.
# Slow Cooling (SC): Solutions are prepared in various solvents at an elevated temperature. The solutions are filtered warm through a 0.2-μm nylon filter into a warm vial. The vial is capped and left on the hot plate, and the hot plate is turned off to allow the sample to cool slowly to ambient temperature. If no solids are present after cooling to ambient temperature, the sample is placed in a refrigerator and/or freezer for further cooling. Solids are collected by vacuum filtration and analyzed.
# Slow Evaporation (SE): Solutions are prepared in various solvents and sonicated to assist in dissolution. Once a mixture reaches complete dissolution, as judged by visual observation, the solution is filtered through a 0.2-μm nylon filter. The filtered solution is allowed to evaporate at ambient conditions in a vial covered with aluminum foil perforated with pinholes. Solutions are evaporated to dryness unless designated as partial evaporations. The solids that form are isolated and analyzed.
# Slurry Experiments: Suspensions are prepared by adding enough solids to a given solvent so that excess solids are present. The mixture is then agitated in a sealed vial at ambient temperature or an elevated temperature. After a given period of time, the solids are isolated by vacuum filtration and analyzed.
# Vapor Diffusion (VD): Solutions are prepared in various solvents and filtered through a 0.2-μm nylon filter. The filtered solution is dispensed into a 1-dram vial, which is then placed inside a 20-mL vial containing antisolvent. The 1-dram vial is left uncapped and the 20-mL vial is capped to allow vapor diffusion to occur. The resulting solids are isolated and analyzed.
# Vapor Stress (VS): A solid sample is placed into a 1-dram vial. The 1-dram vial is then placed into a 20-mL vial containing solvent. The 20-mL vial is capped and left at ambient conditions for a measured time period. Samples are analyzed after removal from the stress environment.
# Crystalline Form A through Form F are prepared as follows by using Crystalline Form A obtained from Example 1 above. A variety of crystallization techniques are used, including evaporation, cooling, solvent/antisolvent precipitation, slurry, vapor stress, and vapor diffusion, as described above.
# Crystalline Forms D, E, and F—Crystalline Form A is dissolved in pH adjusted buffered media. Undissolved solid or precipitate observed is analyzed by XRPD. Some experiments are conducted at elevated temperature to increase solubility, the undissolved solids are also analyzed by XRPD.
# Crystalline Form A from Example 5 is used to make the following crystalline forms.
smiles,measurement,setting,value
"Cl.c1ccc2cc([C@]34CNC[C@H]3C4)ccc2c1 [Crystalline Form A, (1R,5S)-1-(naphthalen-2-yl)-3-azabicyclo[3.1.0]hexane hydrochloride]",average heat of solution,"[1]; triplicate, endothermic",48.618 J/g
same,average heat of solution,[1]; average of three replicates,48.618 J/g
same,ΔH2 (heat of solution),"[1]; calculated using the calibration after breaking the sample vial, single replicates",49.905 J/g and 50.168 J/g and 49.217 J/g
same,ΔH1 (heat of solution),"[1]; calculated using the calibration before breaking the sample vial, single replicates",48.077 J/g and 46.050 J/g and 48.293 J/g
same,ΔHmean (heat of solution),"[1]; mean of the two calibrations, single replicates",48.991 J/g and 48.109 J/g and 48.755 J/g
same,weight loss upon initial equilibration at 5% RH,[2],0.03%
same,hygroscopicity based on dynamic vapor sorption/desorption data,[2]; 5% to 95% RH,non-hygroscopic
same,weight gain from 5% to 95% RH,[2]; sorption,0.10%
same,Weight % chg,"[2]; desorption, Samp RH 4.95%",−0.032 % chg
same,Weight % chg,"[2]; desorption, Samp RH 15.20%",−0.025 % chg
same,Weight % chg,"[2]; desorption, Samp RH 25.12%",−0.021 % chg
same,Weight % chg,"[2]; desorption, Samp RH 35.13%",−0.016 % chg
same,Weight % chg,"[2]; desorption, Samp RH 45.09%",−0.013 % chg
same,Weight % chg,"[2]; desorption, Samp RH 55.08%",−0.007 % chg
same,Weight % chg,"[2]; desorption, Samp RH 64.96%",0.003 % chg
same,Weight % chg,"[2]; desorption, Samp RH 75.28%",0.019 % chg
same,Weight % chg,"[2]; desorption, Samp RH 85.08%",0.037 % chg
same,Weight % chg,"[2]; sorption, Samp RH 5.06%",−0.034 % chg
same,Weight % chg,"[2]; sorption, Samp RH 15.24%",−0.025 % chg
same,Weight % chg,"[2]; sorption, Samp RH 24.81%",−0.024 % chg
same,Weight % chg,"[2]; sorption, Samp RH 34.82%",−0.019 % chg
same,Weight % chg,"[2]; sorption, Samp RH 44.81%",−0.016 % chg
same,Weight % chg,"[2]; sorption, Samp RH 54.86%",−0.012 % chg
same,Weight % chg,"[2]; sorption, Samp RH 64.82%",−0.005 % chg
same,Weight % chg,"[2]; sorption, Samp RH 74.66%",0.005 % chg
same,Weight % chg,"[2]; sorption, Samp RH 84.55%",0.024 % chg
same,Weight % chg,"[2]; sorption, Samp RH 94.54%",0.068 % chg
same,Weight % chg,"[2]; start, Samp RH 1.70%",0.000 % chg
same,XRPD Result,"[3]; 1-propanol, CC (70° C. to dry ice/IPA), freezer/2 d",B + weak A
same,XRPD Result,"[3]; DCM, SE",A + B
same,XRPD Result,"[3]; EtOH, CC (70° C. to dry ice/IPA), freezer/2 d",C + weak A
same,XRPD Result,"[3]; EtOH, FE",A + B
same,XRPD Result,"[3]; EtOH, SC (70° C. to RT, refrigerator/2 d, freezer/8 d)",A + weak C
same,XRPD Result,"[3]; HFIPA/IPE, AS precipitation",A + weak
same,XRPD Result,"[3]; HFIPA, SE",A + weak B
same,XRPD Result,"[3]; IPA, CC (70° C. to dry ice/IPA), freezer/2 d, about 27 mg scale, 10 mg/mL",C + possible
same,XRPD Result,"[3]; TFE, SE",A + weak B
